The source of these data is PMC9250534, “Synthesis and direct assay of large macrocycle diversities by combinatorial late-stage modification at picomole scale” (Nature Communications, 2022).

Numbered stars: 1 amine (or outer) side, 2 acyl side, 3 side chain; on linkers, the order of the positions; unused ones are H or OH. Bridge positions count the residues as written; N and C are the ends. Square brackets hold non-standard residues; d marks the D form. Peptide text beside a SMILES is read from it. * marks the point of attachment. 1,2,3Thiadiazole5CO(4-Me) = Cc1nnsc1C(=O)*; Cysteamide = C(CS[*:3])N[*:1]; X3 = O=C(Cc1c[nH]c2ccccc12)*; 2Furoyl = O=C(c1ccco1)*; Mpa = O=C(O)CCS

Chain of MDM2 (Q00987 whole entry): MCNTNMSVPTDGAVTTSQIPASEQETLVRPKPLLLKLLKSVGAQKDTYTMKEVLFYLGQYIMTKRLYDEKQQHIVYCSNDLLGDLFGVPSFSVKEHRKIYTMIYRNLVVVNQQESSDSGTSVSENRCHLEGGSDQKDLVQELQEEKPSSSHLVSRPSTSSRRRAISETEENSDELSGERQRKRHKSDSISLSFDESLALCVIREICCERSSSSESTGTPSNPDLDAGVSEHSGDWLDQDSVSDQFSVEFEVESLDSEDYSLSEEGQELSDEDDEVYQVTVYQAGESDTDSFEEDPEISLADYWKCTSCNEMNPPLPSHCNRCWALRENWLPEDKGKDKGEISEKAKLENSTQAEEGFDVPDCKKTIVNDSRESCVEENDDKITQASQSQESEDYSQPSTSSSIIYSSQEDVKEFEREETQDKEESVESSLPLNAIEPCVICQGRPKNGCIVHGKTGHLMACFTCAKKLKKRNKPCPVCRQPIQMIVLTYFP

One test has as its target T1, thrombin (Homo sapiens, UniProt P00734).
T1 construct: consists of two polypeptide chains of 36 (light chain) and 259 amino acid
The test is described as follows: Thrombin inhibition screen of crude macrocycle reactions (residual thrombin activity, fluorogenic substrate Z-Gly-Gly-Arg-AMC). As to conditions: 10 µM macrocycle concentration; crude reactions, Library 1a-l; scaffold AA1-AA2-AA3 combined with 1-16 or '-'. The format is biochemical. The method in brief: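 Residual activity was measured as the AMC release rate after adding 50 μM Z-Gly-Gly-Arg-AMC. This followed a 10-min room-temperature preincubation of 2 nM thrombin with 10 μM single macrocycles in pH 7.4 Tris buffer (0.6% DMSO). Percent inhibition was taken against the mean slope of DMSO controls.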
Take `Cc1nnsc1C(=O)NCCCC[C@@H]1NC(=O)[C@H](C(C)C)NC(=O)CCSSCCNC(=O)[C@@H]2CCCN2C1=O` [v-D1-B1/15] ([Mpa]VK(1,2,3Thiadiazole5CO(4-Me))P-Cysteamide; disulfide 1-C): the “percent residual thrombin activity” value turned out to be 105.611%.

Regarding `CC(C)[C@@H]1NC(=O)CCSSCCNC(=O)[C@@H]2CCCN2C(=O)[C@H](CCCCNC(=O)c2ccco2)NC1=O` [v-D1-B1/16] ([Mpa]VK(2Furoyl)P-Cysteamide; disulfide 1-C), the “percent residual thrombin activity” value worked out at 102.421%.

`O=C(Cc1c[nH]c2ccccc12)NCCCC[C@@H]1NC(=O)[C@@H](Cc2ccc(O)cc2)NC(=O)CCSSCCNC(=O)[C@@H]2CCCN2C1=O` [y-D1-B1/12] ([Mpa][dY]K(X3)P-Cysteamide; disulfide 1-C): the “percent residual thrombin activity” value worked out at 104.378%.

`O=C1CCSSCCNC(=O)[C@@H]2CCCN2C(=O)[C@H](CCCCNC(=O)c2ccco2)NC(=O)[C@@H](Cc2ccc(O)cc2)N1` [y-D1-B1/16] ([Mpa][dY]K(2Furoyl)P-Cysteamide; disulfide 1-C): the “percent residual thrombin activity” value is 104.272%.

A further test addresses MDM2 (Homo sapiens, UniProt Q00987). The test is described as follows: MDM2 binding screen of Libraries 3 and 4: displacement of fluorescent probe F-M8 at 750 nM macrocycle. As to conditions: 750 nM macrocycle; crude reaction; probe F-M8. As to the method: The cyclic peptide scaffolds required for Libraries 3 and 4 were synthesized as described for those used in Library 2. Due to the presence of many N-methylated amino acids which are more difficult to couple, 200 mM HOAt was applied together with HATU. The scaffolds were diluted to 2 mM in DMSO, and 15 nL were transferred using acoustic dispensing, followed by 15 nL DMSO containing carboxylic acids (40 mM, 20 equiv.), HBTU (40 mM) and DABCO (40 mM). After 6 h reaction at room temperature, 370 nL of DMSO was added to each well, followed by 5 μL of 100 mM Tris-Cl pH 7.4 containing 0.01% v/v Tween20, for quenching overnight.
For the compound `COc1ccc(/C=C/C(=O)NC[C@@H]2NC(=O)[C@H]3CCCN(C3)C(=O)CCSSCCNC(=O)[C@H](Cc3c[nH]c4ccccc34)NC2=O)cc1` [M9], the “displacement of fluorescent probe from MDM2” value was determined as 68%.

Still in this test, the particulars now being: Panel b, Library 3: 63 scaffolds combinatorially acylated with 15 carboxylic acids at 30 picomole scale; displacement of fluorescent peptide probe; macrocycle 750 nM.
With `O=C1CCSSCCNC(=O)C(Cc2cccc3ccccc23)NC(=O)C(CNC(=O)C2CC2c2ccccc2)NC(=O)C2(CC2)CN1` (mixture of isomers) [X-Amcp-D-Dap-1-NaI + Acid 105], the “fraction of fluorescent probe displaced” value is on record as -0.034. As for `CC(Oc1cccc(Cl)c1)C(=O)NCC1NC(=O)C2(CC2)CNC(=O)CCSSCCNC(=O)C(Cc2ccc3ccccc3c2)NC1=O` (mixture of isomers) [X-Amcp-D-Dap-2-Nal + Acid 113], the “fraction of fluorescent probe displaced” value is -0.00533. `O=C1CCSSCCNC(=O)C(Cc2c[nH]c3ccccc23)NC(=O)C(CNC(=O)C2CC2c2ccccc2)NC(=O)C2(CC2)CN1` (mixture of isomers) [X-Amcp-D-Dap-D-Trp + Acid 105]: the “fraction of fluorescent probe displaced” value was -0.041. For the compound `CN1C(=O)C(CNC(=O)C2COc3ccccc3O2)NC(=O)C2(CC2)CNC(=O)CCSSCCNC(=O)C1Cc1c[nH]c2ccccc12` (mixture of isomers) [X-Amcp-D-Dap-NMe-Trp + Acid 115], the “fraction of fluorescent probe displaced” value was found to be 0.015. On the same count and under the same terms, in the case of `CC(Oc1cccc(Cl)c1)C(=O)NCC1NC(=O)C2(CC2)CNC(=O)CCSSCCNC(=O)C(Cc2c[nH]c3cc(Cl)ccc23)NC1=O` (mixture of isomers) [X-Amcp-Dap-Cl-Trp + Acid 113] it was -0.019; in that of `CC(Oc1cccc(Cl)c1)C(=O)NCC1NC(=O)C2(CC2)CNC(=O)CCSSCCNC(=O)C(Cc2c[nH]c3ccccc23)NC1=O` (mixture of isomers) [X-Amcp-Dap-D-Trp + Acid 113], -0.012. Still for that read-out and setting: to `CC(Oc1cccc(Cl)c1)C(=O)NCC1NC(=O)C2(CC2)CNC(=O)CCSSCCNC(=O)C(Cc2cn(C)c3ccccc23)NC1=O` (mixture of isomers) [X-Amcp-Dap-Me-Trp + Acid 113] belongs 0.008; to `CC(Oc1cccc(Cl)c1)C(=O)NCC1NC(=O)C2(CC2)CNC(=O)CCSSCCNC(=O)C(Cc2c[nH]c3ccccc23)NC1=O` (mixture of isomers) [X-Amcp-Dap-Trp + Acid 113], 0.00133; to `O=C1CCSSCCNC(=O)C(Cc2c[nH]c3ccccc23)NC(=O)C(CNC(=O)C2COc3ccccc3O2)NC(=O)C2(CC2)CN1` (mixture of isomers) [X-Amcp-Dap-Trp + Acid 115], 0.00133.

Turning to `O=C1CCSSCCNC(=O)C(Cc2cccc3ccccc23)NC(=O)CN(CCNC(=O)C2COc3ccccc3O2)C(=O)C2(CC2)CN1` (mixture of isomers) [X-Amcp-N-Aeg-1-NaI + Acid 115], the “fraction of fluorescent probe displaced” value is listed as -0.00533. Same read-out and setting: to `O=C1CCSSCCNC(=O)C(Cc2ccc3ccccc3c2)NC(=O)CN(CCNC(=O)C2COc3ccccc3O2)C(=O)C2(CC2)CN1` (mixture of isomers) [X-Amcp-N-Aeg-2-Nal + Acid 115] belongs 0.015. Still for that read-out and setting: to `CC(Oc1cccc(Cl)c1)C(=O)NCCN1CC(=O)NC(Cc2c[nH]c3cc(Cl)ccc23)C(=O)NCCSSCCC(=O)NCC2(CC2)C1=O` (mixture of isomers) [X-Amcp-N-Aeg-Cl-Trp + Acid 113] belongs -0.019; to `CC(Oc1cccc(Cl)c1)C(=O)NCCN1CC(=O)NC(Cc2cn(C)c3ccccc23)C(=O)NCCSSCCC(=O)NCC2(CC2)C1=O` (mixture of isomers) [X-Amcp-N-Aeg-Me-Trp + Acid 113], 0.015. Consider `CC(Oc1cccc(Cl)c1)C(=O)NCC1NC(=O)C2CCCN(C2)C(=O)CCSSCCNC(=O)C(Cc2ccc3ccccc3c2)NC1=O` (mixture of isomers) [X-Nip-D-Dap-2-Nal + Acid 113], for which the “fraction of fluorescent probe displaced” value was -0.012. Consider `CC(Oc1cccc(Cl)c1)C(=O)NCC1NC(=O)C2CCCN(C2)C(=O)CCSSCCNC(=O)C(Cc2c[nH]c3ccccc23)N(C)C1=O` (mixture of isomers) [X-Nip-D-Dap-NMe-Trp + Acid 113], for which the “fraction of fluorescent probe displaced” value amounted to 0.00133. Same read-out and setting: in the case of `O=C1NC(CNC(=O)C2COc3ccccc3O2)C(=O)NC(Cc2c[nH]c3ccccc23)C(=O)NCCSSCCC(=O)N2CCCC1C2` (mixture of isomers) [X-Nip-D-Dap-Trp + Acid 115] it was 0.00133; in that of `CC(Oc1cccc(Cl)c1)C(=O)NCC1NC(=O)C2CCCN(C2)C(=O)CCSSCCNC(=O)C(Cc2c[nH]c3ccccc23)NC1=O` (mixture of isomers) [X-Nip-Dap-Trp + Acid 113], -0.00533. On to `CC(Oc1cccc(Cl)c1)C(=O)NCCN1CC(=O)NC(Cc2cccc3ccccc23)C(=O)NCCSSCCC(=O)N2CCCC(C2)C1=O` (mixture of isomers) [X-Nip-N-Aeg-1-NaI + Acid 113], for which the “fraction of fluorescent probe displaced” value was -0.00533.

With `O=C(O)C1CC1c1ccccc1` (centres unmarked) [Acid 105], the “fraction of fluorescent probe displaced” value was -0.00844. The same measure, in the same setting: in the case of `O=C(O)/C=C/c1ccncc1` [Acid 106] it was 0.00455; in that of `O=C(O)c1ccc2ccccc2c1` [Acid 107], -0.002. Same read-out and setting: to `O=C(O)/C=C/c1ccc(Cl)cc1` [Acid 108] belongs 0.015.

Take `O=C(O)/C=C/c1ccc(OCc2ccccc2)cc1` [Acid 110]: the “fraction of fluorescent probe displaced” value is given as 0.035. Still for that read-out and setting: in the case of `O=C(O)c1cccc(Oc2ccccc2)c1` [Acid 111] it was 0.015; in that of `CC(Oc1cccc(Cl)c1)C(=O)O` (centres unmarked) [Acid 113], -0.00533; in that of `O=C(O)CCS(=O)(=O)c1ccccc1` [Acid 114], 0.035. On the same count and under the same terms, to `O=C1CCSSCCNC(=O)[C@H](Cc2cccc3ccccc23)NC(=O)[C@@H](CNC(=O)c2ccc(Cl)s2)NC(=O)C2(CC2)CN1` [X-Amcp-D-Dap-1-NaI + Acid 14] belongs 0.008; to `O=C1CCSSCCNC(=O)[C@H](Cc2cccc3ccccc23)NC(=O)[C@@H](CNC(=O)c2ccc3ccccc3c2)NC(=O)C2(CC2)CN1` [X-Amcp-D-Dap-1-NaI + Acid 107], -0.00844; to `O=C(/C=C/c1ccc(Cl)cc1)NC[C@H]1NC(=O)C2(CC2)CNC(=O)CCSSCCNC(=O)[C@H](Cc2cccc3ccccc23)NC1=O` [X-Amcp-D-Dap-1-NaI + Acid 108], 0.021.

For the compound `O=C(/C=C/c1ccc(OCc2ccccc2)cc1)NC[C@H]1NC(=O)C2(CC2)CNC(=O)CCSSCCNC(=O)[C@H](Cc2cccc3ccccc23)NC1=O` [X-Amcp-D-Dap-1-NaI + Acid 110], the “fraction of fluorescent probe displaced” value worked out at 0.028. Consider `O=C1CCSSCCNC(=O)[C@H](Cc2cccc3ccccc23)NC(=O)[C@@H](CNC(=O)c2cccc(Oc3ccccc3)c2)NC(=O)C2(CC2)CN1` [X-Amcp-D-Dap-1-NaI + Acid 111], for which the “fraction of fluorescent probe displaced” value was 0.008.

The test is the same for the next values; noted with them: Panel c, Library 4: best nine scaffolds and 15 additional carboxylic acids; displacement of fluorescent probe.
Turning to `O=C(O)/C=C/c1ccc(F)cc1` [Acid 116], the “fraction of fluorescent probe displaced” value was 0.036.

As for `CCOc1ccc(/C=C/C(=O)O)cc1` [Acid 117], the “fraction of fluorescent probe displaced” value was determined as 0.028. Consider `CCCOc1ccc(/C=C/C(=O)O)cc1` [Acid 118], for which the “fraction of fluorescent probe displaced” value was 0.028. The same measure, in the same setting: to `O=C(O)/C=C/c1ccc(Cl)c(Cl)c1` [Acid 119] belongs 0.012; to `O=C(O)/C=C/c1cccc(Cl)c1` [Acid 121], -0.00464.

Take `CC(=Cc1ccccc1)C(=O)O` [Acid 123]: the “fraction of fluorescent probe displaced” value is on record as -0.00464.

In the case of `CC(C)c1ccc(/C=C/C(=O)O)cc1` [Acid 127], the “fraction of fluorescent probe displaced” value is -0.021. In the case of `O=C(O)c1cnc2ccccc2n1` [Acid 130], the “fraction of fluorescent probe displaced” value was 0.0035.
